From US12006330B2, “Substituted macrocyclic compounds and related methods of treatment” (Alkermes, Inc., priority 2020, dated 2024)

Legend:
Assay type in all cases: in vitro ADME
MDR1 = assay: MDCK-MDR1 permeability assay; conditions: dog, MDCK-MDR1, MDCK-MDR1 cells; for efflux ratio at 2 h, 3 μM: Papp B→A divided by Papp A→B, read-out: Efflux ratio (ER); for Papp A→B at 2 h, 3 μM: test compound 3 μM, 2 hours at 37 degrees C, apical to basolateral
Method: The bidirectional permeability (Apical to Basal and Basal to Apical directions) of test compounds in MDCK-MIDR1 cells were evaluated using MDCK-MIDR1 cells seeded in Solvo PreadyPort™ MDCK 96-well plate. Once the plate was received from ReadyCell (Barcelona, Spain), it was treated as per PreadyPort™ user's manual.
For the Apical to Basolateral (A→B) permeability, 80 μL of test compound (3 μM) co-dosed with LY (Lucifer Yellow) (100 μM) in HBSS (Hank's Balanced Salt Solution) assay buffer was added to the donor side (A) while 250 μL of HBSS buffer was added to the receiver side (B). For the Basolateral to Apical (B→A) permeability, 255 μL of test compound (3 μM) in HBSS assay buffer was added to the donor side (B) while 75 μL of HBSS buffer containing LY (100 μM) was added to the receiver side (A).
The plate was placed in an incubator set at 37 degrees C. After 10 minutes of pre-warming, 5 μL aliquot was taken from donor compartment and set aside as the dosing solution. The MDCK-MDR1 incubation plate was placed back into the incubator for 2 hours of incubation at 37 degrees C. After 2 hours of incubation, 25 μL and 5 μL aliquots were removed from the receiver and donor sides, respectively. To the 5 μL aliquots taken from the donor sides (before and after a 2-hour incubation) were diluted with 20 μL of the HBSS buffer. All samples were mixed with 150 μL with acetonitrile containing internal standard (IS) and 200 μL water, and analyzed by LC-MS/MS.
The apparent permeability (Papp) was calculated using the following formula: Papp=dQ/dt×1/A×C0 where: • dQ/dt: amount of translocated material over incubation time (nmol/s) • A: area of insert (0.14 cm^2 for PreadyPort™ MDR1-96) • C0: initial concentration of product applied in apical (A→B) or basal (B→A) compartment (nmol/mL)
The efflux ratio (ER) was measured by dividing the Papp (basolateral to apical direction) by Papp (apical to basolateral direction). It is a general measure of the involvement of active processes. An ER>2 is considered positive for active transport.
Percent recovery was measured using the following equation:
[formula] where: • VR: Volume of the receiver compartment (mL) • VD: Volume of the donor compartment (mL) • CN: Concentration of dosing solution (μM) collected after 10 minutes of incubation • CR^final: Receiver concentration at the end of the incubation (μM) • CD^final: Donor concentration at the end of the incubation (μM)
The data reported in Table 3 were obtained according to the MDCK-MDR1 permeability assay described above.

[1] = Hepatocytes stability assay (human hepatocytes); conditions: both sexes, human, cryopreserved hepatocytes, cryopreserved human hepatocytes (pool of 50 mixed gender); 1 μM test compound; 1×10^6 cell/mL; 37 degrees C; read-out: CLint (μL/min/million cells)
Method: (§1) In vitro metabolic stability was assessed using cryopreserved hepatocytes from male Sprague Dawley rats and a pool of 50 mixed gender humans (BioIVT, Baltimore, MD). The incubation mixtures were prepared by mixing 250 μL of pre-warmed KHB (Krebs-Henseleit buffer) containing 2×10^6 cell/mL of hepatocytes with 250 μL of pre-warmed KHB buffer containing 2 μM of test compounds in a 48-well plate, giving a final concentration of 1 μM test compound (0.1% DMSO) and 1×10^6 cell/mL of hepatocytes. The reaction mixture was incubated at 37 degrees C. A 50 μL aliquot of incubation mixture was taken at time points (0, 15, 30, 60, 120 and 240 minutes) and transferred into a 96-well plate containing 300 μL ice-cold acetonitrile (containing 30 ng/mL of labetalol and 10 ng/mL of Naltrexone-d3 as internal standards) and immediately placed in ice to terminate the reaction. Samples were centrifuged, and supernatants were transferred into 96-well plates for liquid chromatography with tandem mass spectrometry (LC-MS/MS) analysis to monitor the depletion of the test compound.
(§2) Data was calculated as percent remaining by assuming zero-minute time point peak area ratio (analyte/IS) as 100% and dividing remaining time point peak area ratios by zero-minute time point peak area ratio. Data were fitted to a first-order decay model to determine half-life. From a plot of log (ln) peak area against time, the slope of the line was determined. Subsequently, half-life (T1/2) and intrinsic clearance (CLint) were calculated using the equations below: Elimination rate constant (k)=(−slope) Half-life (T1/2) min=0.693/k Intrinsic Clearance (CLint) (mL/min/million cells)=(V×0.693)/T1/2 V=incubation volume mL/number of cells The in vitro T1/2 was converted to in vitro intrinsic clearance (CLint,hep) in units of mL/min/kg using the formula shown below:
(§3) [formula] The in vitro intrinsic clearance (CLint,hep) was scaled to in vivo hepatic clearance (CL,hep) using the following equation which was adapted from a well-stirred model.
(§4) [formula] where Q is the liver blood flow and fu is the fraction unbound (assumed to be unity in this case). All parameters used in the calculation are shown below (Table 4).
(§5) The extraction ratio (ER) was calculated by dividing the hepatic clearance of a compound to the liver blood flow. The data reported in Table 5 were obtained according to the human hepatocytes stability assay described above.

human hepatocytes = assay: Hepatocytes stability assay (human hepatocytes); conditions: human hepatocytes; scaled hepatic clearance divided by liver blood flow (well-stirred model, fu assumed unity)
Method: as §1, §2, §3, §4, §5

Row | SMILES | efflux ratio at 2 h, 3 μM (MDR1) | Papp A→B at 2 h, 3 μM (MDR1) | hepatocyte CLint at 1 μM [1] | Extraction Ratio (ER) (human hepatocytes)
1 | CS(=O)(=O)N[C@H]1CCCN2C(=O)COc3ccc(C#N)cc3[C@H]3CC[C@H](CC3)OCC12 (stereo in doubt) [Compound 46] | 81 | 0.18 ×10⁻⁶ cm/s | 2.8 µL/min/1e6 cells | 0.29
2 | O=S(=O)(N[C@H]1CCCN2CCOc3ccccc3[C@H]3CC[C@H](CC3)OCC12)C1CC1 (stereo in doubt) [Compound 51] | 1.1 | 7.8 ×10⁻⁶ cm/s | 42 µL/min/1e6 cells | 0.86
3 | CCS(=O)(=O)N[C@H]1CCCN2CCOc3ccccc3[C@H]3CC[C@H](CC3)OCC12 (stereo in doubt) [Compound 53] | 1.8 | 5.6 ×10⁻⁶ cm/s | 58 µL/min/1e6 cells | 0.90
4 | Cc1ccc2c(c1)[C@H]1CC[C@H](CC1)OCC1[C@@H](NS(C)(=O)=O)CCCN1CCO2 (stereo in doubt) [Compound 54] | 2 | 5.2 ×10⁻⁶ cm/s | 38 µL/min/1e6 cells | 0.85
5 | O=S(=O)(CC1CCC1)N[C@H]1CCCN2CCOc3ccccc3[C@H]3CC[C@H](CC3)OCC12 (stereo in doubt) [Compound 55] | 31 | 0.23 ×10⁻⁶ cm/s | 69 µL/min/1e6 cells | 0.91
6 | CC(C)(C)S(=O)(=O)N[C@H]1CCCN2CCOc3ccccc3[C@H]3CC[C@H](CC3)OCC12 (stereo in doubt) [Compound 56] | 3.3 | 1.7 ×10⁻⁶ cm/s | 69 µL/min/1e6 cells | 0.91
7 | CC1(S(=O)(=O)N[C@H]2CCCN3CCOc4ccccc4[C@H]4CC[C@H](CC4)OCC23)CC1 (stereo in doubt) [Compound 58] | 7.5 | 1.4 ×10⁻⁶ cm/s | 55 µL/min/1e6 cells | 0.89
8 | Cc1ccnc2c1[C@H]1CC[C@H](CC1)OCC1[C@@H](NS(=O)(=O)C3CC3)CCCN1C(=O)CO2 (stereo in doubt) [Compound 62] | > 100 | 0.092 ×10⁻⁶ cm/s | 21 µL/min/1e6 cells | 0.76
9 | Cc1ncnc2c1[C@H]1CC[C@H](CC1)OCC1[C@@H](NS(=O)(=O)C(C)C)CCCN1C(=O)CO2 (stereo in doubt) [Compound 69] | > 100 | < 0.041 ×10⁻⁶ cm/s | 3.4 µL/min/1e6 cells | 0.34
10 | O=C1COc2cccc(F)c2[C@H]2CC[C@H](CC2)OCC2[C@@H](NS(=O)(=O)C3CC3)CCCN12 (stereo in doubt) [Compound 74] | 41 | 0.62 ×10⁻⁶ cm/s | 15 µL/min/1e6 cells | 0.69

Next, values leading:

Row | efflux ratio at 2 h, 3 μM (MDR1) | Papp A→B at 2 h, 3 μM (MDR1) | hepatocyte CLint at 1 μM [1] | Extraction Ratio (ER) (human hepatocytes) | SMILES
11 | > 100 | 0.19 ×10⁻⁶ cm/s | 4.3 µL/min/1e6 cells | 0.39 | CS(=O)(=O)N[C@H]1CCCN2C(=O)COc3cc(C#N)ccc3[C@H]3CC[C@H](CC3)OCC12 (stereo in doubt) [Compound 47]
12 | 60 | 0.56 ×10⁻⁶ cm/s | 41 µL/min/1e6 cells | 0.86 | O=C1COc2ccccc2[C@H]2CC[C@H](CC2)OCC2[C@@H](NS(=O)(=O)CC3CC3)CCCN12 (stereo in doubt) [Compound 48]
13 | 0.73 | 8.6 ×10⁻⁶ cm/s | 58 µL/min/1e6 cells | 0.90 | Cc1cccc2c1OCCN1CCC[C@H](NS(C)(=O)=O)C1CO[C@H]1CC[C@@H]2CC1 (stereo in doubt) [Compound 49]
14 | 0.76 | 9.6 ×10⁻⁶ cm/s | 61 µL/min/1e6 cells | 0.90 | Cc1ccc2c(c1)OCCN1CCC[C@H](NS(C)(=O)=O)C1CO[C@H]1CC[C@@H]2CC1 (stereo in doubt) [Compound 50]
15 | 2.4 | 3.9 ×10⁻⁶ cm/s | 59 µL/min/1e6 cells | 0.90 | CC(C)S(=O)(=O)N[C@H]1CCCN2CCOc3ccccc3[C@H]3CC[C@H](CC3)OCC12 (stereo in doubt) [Compound 52]
16 | 6 | 1.7 ×10⁻⁶ cm/s | 65 µL/min/1e6 cells | 0.91 | O=S(=O)(N[C@H]1CCCN2CCOc3ccccc3[C@H]3CC[C@H](CC3)OCC12)C1CCC1 (stereo in doubt) [Compound 57]
17 | 5.4 | 1.67 ×10⁻⁶ cm/s | 62 µL/min/1e6 cells | 0.90 | O=S(=O)(CC1CC1)N[C@H]1CCCN2CCOc3ccccc3[C@H]3CC[C@H](CC3)OCC12 (stereo in doubt) [Compound 59]
18 | 1.4 | 7.5 ×10⁻⁶ cm/s | 44 µL/min/1e6 cells | 0.87 | O=S(=O)(N[C@H]1CCCN2CCOc3ncccc3[C@H]3CC[C@H](CC3)OCC12)C1CC1 (stereo in doubt) [Compound 63]
19 | 1.2 | 12 ×10⁻⁶ cm/s | 46 µL/min/1e6 cells | 0.87 | CC(C)S(=O)(=O)N[C@H]1CCCN2CCOc3ncccc3[C@H]3CC[C@H](CC3)OCC12 (stereo in doubt) [Compound 64]
20 | 63 | < 0.036 ×10⁻⁶ cm/s | 2.5 µL/min/1e6 cells | 0.27 | O=C1COc2nnccc2[C@H]2CC[C@H](CC2)OCC2[C@@H](NS(=O)(=O)C3CC3)CCCN12 (stereo in doubt) [Compound 67]
21 | 4.2 | 3.7 ×10⁻⁶ cm/s | 45 µL/min/1e6 cells | 0.87 | Cc1cccc2c1[C@H]1CC[C@H](CC1)OCC1[C@@H](NS(=O)(=O)C3CC3)CCN1C(=O)CO2 (stereo in doubt) [Compound 70]
22 | 65 | 0.3 ×10⁻⁶ cm/s | 11 µL/min/1e6 cells | 0.61 | Cc1c(Cl)ccc2c1[C@H]1CC[C@H](CC1)OCC1[C@@H](NS(=O)(=O)C3CC3)CCCN1C(=O)CO2 (stereo in doubt) [Compound 75]
23 | 28 | 0.57 ×10⁻⁶ cm/s | 9.8 µL/min/1e6 cells | 0.59 | Cc1ccc2c(c1C)[C@H]1CC[C@H](CC1)OCC1[C@@H](NS(=O)(=O)C(C)C)CCCN1C(=O)CO2 (stereo in doubt) [Compound 76]
